From PubChem BioAssay (NCI)
Values joined by “and” are separate entries in the source; they are usually repeats but may differ in a detail not shown here. Equal entries are not always repeated.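 Compound exposure: 48 hours, 5 concentrations, 96-well plates. GI50 = concentration required for 50% inhibition of growth. TGI: total growth inhibition.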

Key:
Assay in all cases: growth of human tumour cells (NCI), 48 h
[1] = system: 786-0 renal
[2] = system: A498 renal
[3] = system: HCC-2998 colon
[4] = system: IGROV1 ovarian
[5] = system: K-562 leukemia
[6] = system: M14 melanoma
[7] = system: NCI-H522 lung
[8] = system: OVCAR-8 ovarian
[9] = system: SF-268 CNS
[10] = system: SN12C renal

SMILES	TGI [1] [µM]	TGI [2]	TGI [3]	TGI [4]	TGI [5]	TGI [6] [µM]	TGI [7]	TGI [8]	TGI [9]	TGI [10]	GI50 [1]	GI50 [2]	GI50 [3]	GI50 [4]	GI50 [5]	GI50 [6]	GI50 [7]	GI50 [8]	GI50 [9]	GI50 [10]
CC(C)N(C(=O)C12C3C4C5C3C1(C(=O)N(C(C)C)C(C)C)C5C42)C(C)C (configuration not stated)	> 100	> 100 µM	> 100 µM	> 100 µM	> 61.5 µM	> 100	> 100 µM	> 100 µM	> 100 µM	> 100 µM										
O=C(O)CNCc1c2ccccc2nc2ccccc12	> 95.4	> 100 µM	> 100 µM	> 100 µM	> 82.7 µM	> 100	57.5 µM	> 100 µM	> 100 µM	> 100 µM										
Fc1ccc(-c2ncn(C3CCNCC3)c2-c2ccnc(Oc3ccc(Oc4ccccc4)cc3)n2)cc1	7.75	7.01 µM	6.69 µM	7.5 µM	5.74 µM	7.99	8.7 µM	8.4 µM	7.71 µM	6.96 µM	4.03 µM	3570 nM	3.15 µM	3.78 µM	1950 nM	4310 nM	4.67 µM	4.2 µM	3.94 µM	3.57 µM
CCN(Cc1cccc(C)c1)c1ccc(CO)c(Cl)c1	23.5	0.162 µM	25.4 µM	1.18 µM	44.6 µM	29.8	27.5 µM	28.3 µM	31.1 µM	26.3 µM	10.8 µM	36.2 nM	12.1 µM	0.152 µM	3980 nM	14300 nM	13.2 µM	12.3 µM	16.2 µM	12.1 µM
COC(=O)C([O][Ge]([CH3])([CH3])[CH3])c1ccccc1 (configuration not stated)	> 100	> 100 µM	> 100 µM	> 100 µM	> 100 µM	> 100	> 100 µM	> 100 µM	> 100 µM	> 100 µM	> 100 µM	> 100000 nM	> 100 µM	> 100 µM	> 100000 nM	> 100000 nM	> 100 µM	> 100 µM	> 100 µM	> 100 µM
COc1ccc(C2C3=C(COC3=O)N(CCO)c3cc4c(cc32)CCC4)cc1OC (configuration not stated)	> 50	> 20 µM	> 16.3 µM	> 42.7 µM	> 50 µM	> 11.8		> 50 µM	> 50 µM	> 50 µM	5.56 µM	242 nM	0.945 µM	0.274 µM	470 nM	542 nM	0.514 µM	1.74 µM	1.78 µM	3.41 µM
CC(=O)OC1CC2C(C)(C)C(=O)C=C[C@]2(C)C2CCC3(C)C(=CCC3[C@H](CO)C[C@H](O)C(=O)C(C)(C)O)[C@]12C (some centres not stated)	34.1	30.7 µM	34.1 µM	49.1 µM	> 100 µM	45.6	52.3 µM	33.1 µM	82.2 µM	75.9 µM										
C=C(C)[C@@H]1CC[C@@H]2C(=CC[C@]3(C)C([C@H](C)CC/C=C(/C)C(=O)O)CC[C@@]23C)[C@@]1(C)CCC(=O)O (some centres not stated)	43.9	74.4 µM	35.1 µM	88.8 µM	> 100 µM	> 100	91.6 µM	> 100 µM	> 100 µM	> 100 µM										
CCOC(=O)Nc1ccc2nc(Sc3ccc(Cl)cc3)sc2c1	40.3	26.8 µM	> 71.4 µM	> 100 µM	> 100 µM	24.6	35.2 µM	70.4 µM	> 100 µM	> 100 µM	8.12 µM	1190 nM	15.3 µM	5.09 µM	423 nM	1660 nM	2.47 µM	7.72 µM	8.66 µM	6.49 µM
Clc1ccc2c(NCCNc3nc(Cl)nc4ccccc34)ccnc2c1	2.46	3.52 µM	3.18 µM	2.7 µM	0.614 µM	3.51	2.76 µM	3.34 µM	3.84 µM	3.2 µM	1.08 µM	1870 nM	1.62 µM	1.13 µM	255 nM	1840 nM	1.3 µM	1.49 µM	1.89 µM	1.48 µM
CCN(CC)Cc1cc(Nc2c3ccc(Cl)cc3nc3c(C)cccc23)ccc1O	2.67	3 µM	2.47 µM	1.78 µM	5.48 µM	3.11	1.92 µM	3.45 µM	3.09 µM	2.92 µM	1.37 µM	1050 nM	1.2 µM	0.56 µM	1160 nM	1690 nM	0.585 µM	1.34 µM	1.53 µM	1.36 µM
COC(=O)CCCCCCCCC(=O)c1c(C)[nH]c(/C=C2\N=C(c3ccc[nH]3)C=C2OC)c1C	> 43.4	> 100 µM	> 100 µM	> 100 µM	> 34.2 µM	> 21.3	> 69.9 µM	> 59.9 µM	> 100 µM	> 100 µM	8.53 µM	> 100000 nM	> 26.9 µM	> 67.3 µM	1080 nM	2640 nM	8.55 µM	14.4 µM	> 20.6 µM	> 53.8 µM
NC(=S)c1cn(C2OC(CO)C(O)C2O)c2ncnc(N)c12 (configuration not stated)		3.01 µM	0.998 µM	0.586 µM		0.354	0.554 µM		3.4 µM	12.5 µM	0.356 µM	535 nM	0.208 µM	0.136 µM	199 nM	98.9 nM	0.168 µM	0.209 µM	0.284 µM	0.201 µM
COC(=O)C1=C(C)NC(C)=C(C(=O)OC)C1c1ccccc1[N+](=O)[O-]	> 100	56.3 µM	> 100 µM	> 100 µM	> 100 µM	> 100	> 100 µM	> 100 µM	> 100 µM	> 100 µM	> 100 µM	11300 nM	> 100 µM	57.2 µM	78800 nM	> 100000 nM	> 100 µM	64.8 µM	> 100 µM	82.2 µM
Cc1cccc2c1C(=O)OC2(c1cccc2ccccc12)c1cccc2ccccc12	> 100	> 100 µM	> 100 µM	> 100 µM	> 100 µM	> 100	> 100 µM	> 100 µM	> 100 µM	> 100 µM										
C=CCN1C(=O)C/C(=C2/CCC(=O)N2CC=C)C1=O	> 100	> 100 µM	> 100 µM	> 100 µM	> 100 µM	> 100	> 100 µM	> 100 µM	> 100 µM	> 100 µM										
Nc1cc2ccncc2c2ccccc12	> 100	13.7 µM	40.4 µM	> 100 µM	73 µM	32.1	26.6 µM	> 100 µM	52.5 µM	> 100 µM	23.3 µM	1840 nM	14.2 µM	11.9 µM	13500 nM	14500 nM	5.49 µM	5.25 µM	11.1 µM	11.4 µM
COC(=O)C12CC(NC(=O)c3csc([C@@H](C[C@H](C(C)C)N(C)C(=O)[C@@H](NC(=O)[C@H]4CCCCN4C)C(C)C)OC(C)=O)n3)(C1)C2	> 33.3	0.829 µM and 0.194 µM	> 33.3 µM	> 33.3 µM	> 33.3 µM	> 33.3	0.000929 µM and < 0.00333 µM	> 33.3 µM	> 33.3 µM	> 33.3 µM	0.005 µM and 0.00333 µM	15.3 nM and 4.73 nM	0.00748 µM and 0.00333 µM	0.00237 µM and 0.00333 µM	0.513 nM and 3.33 nM	1.76 nM and 3.33 nM	0.000185 µM and < 0.00333 µM	0.00429 µM and 0.00333 µM	0.00488 µM and 0.00388 µM	0.003 µM and 0.00333 µM
CCN(CC)CCn1nc2c3c(cccc3c1=O)-c1ccccc1-2	48.8	9.95 µM	11 µM	> 50 µM	> 50 µM	13.1	9.84 µM	> 50 µM	21.3 µM	> 50 µM	2.44 µM	2980 nM	2 µM	2.06 µM	2030 nM	2150 nM	2.21 µM	2.23 µM	2.87 µM	2.07 µM
CCN(CC)c1ccc(/C=C2/NC(=O)NC2=O)cc1	> 100	> 89.3 µM	> 100 µM	> 27.6 µM	> 100 µM	38.9	24.8 µM	> 100 µM	> 35.8 µM	> 100 µM	10.9 µM	7440 nM	16.2 µM	4.82 µM	671 nM	3300 nM	2.18 µM	14.7 µM	4.39 µM	11.1 µM
CCCCCCCC(=O)O[C@H]1[C@H]2[C@@H](CC1(C)C)C(=O)[C@]13O[C@H]1C(=O)[C@]1(CO1)[C@]23C	14.1	36.1 µM and 22.8 µM	21.3 µM and 13.2 µM	36.6 µM and 11.4 µM	5.13 µM and 5.3 µM	11.3	2.9 µM and 3.85 µM	24.5 µM and 8.05 µM	23.1 µM and 16.2 µM	12.6 µM and 9.31 µM		21600 nM	9.4 µM	20.9 µM	1520 nM			8.06 µM	8.17 µM	
CC(C)S(=O)(=O)ON1C(=O)c2ccc([N+](=O)[O-])cc2C1=O	> 100	> 100 µM	> 100 µM	> 100 µM	> 100 µM	> 100	> 100 µM	> 100 µM	> 100 µM	> 100 µM										
CC[C@@]1(O)C(=O)N(CCN(C)C)Cc2c1cc1n(c2=O)Cc2cc3ccccc3nc2-1	> 100	> 100 µM	> 100 µM	> 100 µM	> 100 µM	> 100	> 89 µM	> 100 µM	> 100 µM	> 100 µM	8.09 µM	56200 nM	39.7 µM	26 µM	> 41700 nM	9310 nM	7.05 µM	12.5 µM	3.59 µM	8.85 µM
CC(=O)O[C@H]1Cc2c([nH]c3ccccc23)[C@@H](c2ccc(Cl)cc2)N1C(=O)CCNC(C)(C)C	7.92	5.83 µM	7.85 µM	7.77 µM	10.1 µM	6.96	11 µM	9.45 µM	9.24 µM	8.54 µM	3.64 µM	1900 nM	3.65 µM	2.19 µM	3080 nM	2050 nM	5.82 µM	4.86 µM	4.21 µM	4.24 µM
COc1ccc2nc(NC(=O)C(=O)C(C#N)c3ccc(CC#N)cc3)sc2c1 (configuration not stated)	> 100	> 100 µM	> 100 µM	> 100 µM	> 100 µM	> 100	> 100 µM	> 100 µM	> 100 µM	> 100 µM										
O=C1NC(=Nc2ccccc2Cl)SC1C(=O)Nc1ccc([N+](=O)[O-])cc1[N+](=O)[O-] (configuration not stated)	> 100	> 100 µM	> 100 µM	> 100 µM	> 100 µM	> 100	> 100 µM	> 100 µM	> 100 µM	> 100 µM										
CCc1cc(Nc2nccc(-c3c(-c4ccc(OC)c(C(=O)Nc5c(F)cccc5F)c4)nc4ccccn34)n2)c(OC)cc1N1CCC(N2CCN(S(C)(=O)=O)CC2)CC1	> 100	> 100 µM	> 100 µM	> 100 µM	> 100 µM	> 100	> 100 µM	> 100 µM	> 100 µM	> 100 µM	> 100 µM	> 100000 nM	> 100 µM	> 100 µM	> 100000 nM	> 58100 nM	> 100 µM	> 100 µM	> 100 µM	> 100 µM
c1ccc2c(Nc3ccc4c(c3)OCO4)c3ccoc3nc2c1	40.3	29.1 µM	29.6 µM	> 100 µM	27.8 µM	29.8	> 100 µM	46.4 µM	51.6 µM	82.1 µM	17.3 µM	14400 nM	12.5 µM	31.5 µM	3270 nM	14300 nM	27.2 µM	12.6 µM	15.6 µM	24.2 µM
